# Data from patent publication US11389415B2, “Methods of regulating cannabinoid receptor activity-related disorders and diseases” (The United States of America as represented by the …, priority 2012, dated 2022).
# “Also recorded” adds a separate entry of the source.
# Tests used:
# rat C6 glioma xenograft = assay: C6 tumor xenograft in mice, tumor growth; type: in vivo, mouse
# Method: C6 tumor xenograft in mice. In order to assess the ability of MNF to induce regression of tumor growth in vivo, rat C6 glioma cells were trypsin-collected at confluency and were used to generate tumor xenografts. Athymic female nude mice (SWISS nu+/nu+) were obtained from Charles Rivers (L'Arbresle, France) and maintained under pathogen-free conditions with a 12 hours light/12 hours dark cycle. Animals were fed ad libitum with normal chow (supplier). Athymic nude mice were inoculated subcutaneously with […] containing 0.5×10^6 C6 glioma cells in the left flank and then were randomly divided into two groups of 10 animals each. Starting 3 days after cell inoculation, mice received daily intraperitoneal injection (10 μl·g-1 body weight) of vehicle or MNF (2 mg·kg-1) in 100 μM ascorbic acid in saline (vehicle) five days a week for 19 days. Animal survival was monitored daily, and tumor size was determined with the use of a caliper to measure the length (a) and width (b) and estimated as 4/3π×rl2×r2, where rl is the smaller and r 2 the larger radius. […] The mice were euthanized by cervical […], and tumor masses were removed, weighed and washed with cold PBS before being snap-frozen in liquid nitrogen. A second set of studies with 8-9 animals in both groups was repeated.
# [1] = MNF accumulation in vivo in C6 glioma tumors; design: species or system mouse; details: C6 xenograft tumors at completion of study
# Method: Evaluation of MNF accumulation in vivo in C6 glioma tumors. The accumulation of MNF in vivo in C6 tumor xenografts in athymic mice was assessed in comparison with vehicle-treated tumor-bearing animals. The frozen tumor samples were thawed, and then homogenized. The concentration of MNF and its metabolites was determined by HPLC followed by LC-MS/MS. In brief, the assays were conducted using an Eclipse XDB-C18 guard column (4.6 mm×12.5 mm) and an Atlantis HILIC column (150×2.1 mm ID, […]). The mobile phase consisted of water containing 0.1% formic acid as component A and acetonitrile as component B. A linear gradient was run as follows: 0 minutes 95% B; 5 minutes 60% B; 6 minutes 80% B; 10 minutes 95% B at a flow rate of 1.0 ml/minute. The total run time was 15 minutes per sample. Identification and quantification of the analytes was accomplished using an API-4000 LC-MS/MS in positive electrospray ionization mode and data was acquired employing multiple reaction monitoring (MRM) and the following MRM transitions: MNF (369-200); MNF-Gluc (545-200). Tumor tissues from vehicle-injected mice were used as controls.
# cyclin A and cyclin D1 = assay: Western blot of cell cycle regulator proteins (cyclin A, cyclin D1), C6 glioma; design: species or system mouse; details: C6 glioma in vivo and in vitro
# Source text: Western Blot Analysis. Frozen tumor tissues were lysed with radioimmune precipitation buffer containing EGTA and EDTA (Boston BioProducts, Ashland, Mass.) supplemented with a phosphatase inhibitor cocktail (EMB-Calbiochem), and protease inhibitor cocktail (Sigma-Aldrich), according to standard protocols. Equal amounts of protein from the clarified lysates were separated by SDS-polyacrylamide gel electrophoresis under reducing conditions (Invitrogen, Carlsbad, Calif.), and electrotransferred onto polyvinylidene difluoride membranes using the iBlot system (Invitrogen). Western blots were performed according to standard methods, which involved blocking the membrane in 5% non-fat milk, followed by sequential incubation method with the primary antibody of interest and secondary antibody conjugated with the enzyme horseradish peroxidase. The detection of immunoreactive bands was performed by chemiluminescence using the ECL Plus Western Blotting Detection System (GE Healthcare, Piscataway, N.J.). Quantitation of the protein bands was done by volume densitometry using ImageJ software (National Institutes of Health, Bethesda, Md.). […]
# HepG2 cells = assay: [3H]-Thymidine incorporation assay in HepG2 cells; type: cell-based, human; details: 1 μM, 24 h
# How it was run: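 HepG2 and U87MG cells (~50,000/well) were treated 24 hours at 37° C with test compounds in serum-free medium, then labelled 16 hours with 1 μCi [3H]-thymidine. Cells were lysed in 0.1N NaOH and incorporation measured by scintillation counting, expressed as CPM relative to control cells.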
structure (smiles),measurement,setting,value
"COc1ccc(C[C@@H](C)NC[C@H](O)c2cc(O)cc(O)c2)c2ccccc12 [(R,R′)-MNF, (R,R′)-4′-methoxy-1-naphthylfenoterol]","average AUC±SEM (tumor volume over time, FIG. 19B)","rat C6 glioma xenograft; C6 tumor-bearing female nude mice, 2 mg/kg, five days a week for 19 days, n=19 (vehicle 5450±518)",3217±265
same,tumor volume compared with vehicle-treated group,"rat C6 glioma xenograft; C6 xenograft in nude mice, 2 mg/kg intraperitoneal",Significant reduction in mean tumor volumes; also recorded: Significant reduction in tumor volume
same,tissue concentration of MNF in tumor,"[1]; cohort 1, n=9",141.0±52.5 ng/ml/g tissue
same,tissue concentration of MNF in tumor,"[1]; cohort 2, n=7",214.4±65.5 ng/ml/g tissue
same,expression of cell cycle regulator proteins,cyclin A and cyclin D1,marked reduction in the expression of cell cycle regulator proteins
same,% Change in HepG2 cells ([3H]-thymidine incorporation),HepG2 cells,−59.4%
